{"source": "patent US7247752B2", "about": "“Methods for the synthesis of astaxanthin” (Cardax Pharmaceuticals, Inc., priority 2004, dated 2007)", "origin": "cited, not measured here", "test_system": "transformed cells as well as normal prostatic epithelium", "settings": "alone and/or in combination with other antioxidants (e.g. vitamin E)", "data": [{"smiles": "CC(C)=CCC/C(C)=C/C=C/C(C)=C/C=C/C(C)=C/C=C/C=C(C)/C=C/C=C(C)/C=C/C=C(\\C)CCC=C(C)C", "note": "[lycopene]", "values": [{"measurement": "growth inhibition of cultured human cells", "value": "growth inhibitory"}]}]}
